Where two headings read alike, the source gives them in different places.

Test [1] relates to HeLa (cervical) cell line. The test can be described thus: MTT cytotoxic activity assay, HeLa. Format: cell-based, human. As to conditions: 72 h; for IC50: Homo sapiens, HeLa. Here is the method: (§1) All the synthesized tricyclic pyrrolo[2,3-d]pyrimidines 8a–j and 10a–f were evaluated for their cytotoxic activity on cancer cell lines derived from the most common cancers: breast (MCF-7), cervical (HeLa), and colon (HT-29). Human cancer cell lines were treated with synthesized compounds, using doxorubicin (DOX) as a positive control, at concentrations of the compounds ranging from 0.001 to 6.561 μM. Cells were incubated at 37 °C for 72 h before measurement, and IC50 values were determined graphically. In our previous research, the cytotoxic activity of compounds 6a and 6b was also evaluated on the same human cancer cell lines used in the current study.
(§2) The MCF-7, HeLa, and HT-29 cell lines, obtained from the Chinese Type Culture Collection, CAS (Shanghai, China), were used as models for cytotoxicity screening. The samples were dissolved in dimethyl sulfoxide (DMSO) (50 μM) and stored at 4 °C. Cell viability was determined using the MTT assay. For the MTT assay, the target cells were seeded in 96-well plates and treated with the synthesized samples for 72 h. Then, 5 mg/mL MTT was added to the culture medium, and 10 μL/well was added. The plate was then incubated in the dark at 37 °C for 4 h. The medium was removed, and 100 μL of dimethyl sulfoxide was added per well. OD570 was measured using Spectra Max M5 (Molecular Devices, CA, USA). Cell viability (%) = ODcompound /ODDMSO × 100%. IC50 values were calculated using GraphPad Prism 9 (CA, USA) by nonlinear regression of the log-transformed data (X Log[X]), with the log (inhibitor) vs. normalized response-variable slope tool.
On the technique in general: Tetrazolium assays rely on reduction of a dye to a coloured formazan, in cell work by metabolically active cells.

The next test relates to MCF-7 (breast) cell line. The test can be described thus: MTT cytotoxic activity assay, MCF-7. Format: cell-based, human. Particulars: for IC50: Homo sapiens, MCF7, 72 h. The protocol:
as §1, §2

In test [2] the test system is HT-29 (colon) cell line. Nature of the test: MTT cytotoxic activity assay, HT-29. The format is cell-based. As to conditions: Homo sapiens, 72 h. The protocol:
as §1, §2

The subject of test [3] is HeLa, MCF-7 and HT-29 cell lines. Nature of the test: MTT cytotoxic activity, stated across the three cancer cell lines. Particulars: span over HeLa, MCF-7, HT-29; for IC50: Homo sapiens, read-out: IC50 across all three cell lines. Format: cell-based, human. The protocol:
as §1, §2

Test [4] has as its system human embryonic kidney (HEK-293) cells. The test can be described thus: Cytotoxicity on non-cancerous HEK-293 cells. The format is cell-based. Particulars: HEK293, read-out: IC50 (±SD), HEK-293. The protocol:
On the other hand, the inactivity of these leads on HeLa and MCF-7 cells (IC50 ≥ 50 µM) indicates specific tumor type selectivity. […] The selectivity index (SI) was then calculated as the ratio of the IC50 values for HEK-293 and HT-29 cells and is shown in Table 2.
as §2

Test [5] has as its system HeLa (cervical) cell line. On the set-up: method as in PMID 36197552. As to conditions: previous research ref 29; cited from earlier work.
The test system of test [6] is HT-29 (colon) cell line. On the set-up: method as in PMID 36197552. As to conditions: previous research ref 29; cited from earlier work.

Turning to `Cn1c(-c2ccc(Cl)cc2)cc2/c(=N\c3ccc(F)cc3)n3c(nc21)CCCC3` [Compound 8b, (E)-2-(4-Chlorophenyl)-N-(4-fluorophenyl)-1-methyl-6,7,8,9-tetrahydropyrido[1,2-a]pyrrolo[2,3-d]pyrimidin-4(1H)-imine], the IC50 (in test [1]; with MCF-7 (breast) cell line; in the test on HT-29 (colon) cell line [2]) was at least 50 µM throughout.

For the molecule `Cn1c(-c2ccc(Br)cc2)cc2/c(=N\c3ccc(Br)cc3)n3c(nc21)CCCCC3` [Compound 8i, (E)-N,2-Bis(4-bromophenyl)-1-methyl-1,6,7,8,9,10-hexahydro-4H-pyrrolo[2’,3’:4,5]pyrimido[1,2-a]azepin-4-imine], the IC50 (in test [1]; in the test with MCF-7 (breast) cell line; in the test on HT-29 (colon) cell line [2]) was at least 50 µM in each case.

Take `Cn1c(-c2ccc(Cl)cc2)cc2/c(=N\c3ccc(Br)cc3)n3c(nc21)CCCC3` [Compound 8d, (E)-N-(4-Bromophenyl)-2-(4-chlorophenyl)-1-methyl-6,7,8,9-tetrahydropyrido[1,2-a]pyrrolo[2,3-d]pyrimidin-4(1H)-imine]: the half-maximal inhibitory concentration (IC50) (in test [1]; in the test with MCF-7 (breast) cell line; in the test on HT-29 (colon) cell line [2]) was at least 50 µM each time.

As to `Cn1c(-c2ccc(Cl)cc2)cc2/c(=N\c3ccc(C(F)(F)F)cc3)n3c(nc21)CCCC3` [Compound 8e, (E)-2-(4-Chlorophenyl)-1-methyl-N-(4-(trifluoromethyl)phenyl)-6,7,8,9-tetrahydropyrido[1,2-a]pyrrolo[2,3-d]pyrimidin-4(1H)-imine], the IC50 (in test [1]; with MCF-7 (breast) cell line; in the test with HT-29 (colon) cell line [2]) was at least 50 µM in each case.

For `Cn1c(-c2ccc(Cl)cc2)cc2/c(=N\c3ccccc3)n3c(nc21)CCCC3` [Compound 8a, (E)-2-(4-Chlorophenyl)-1-methyl-N-phenyl-6,7,8,9-tetrahydropyrido[1,2-a]pyrrolo[2,3-d]pyrimidin-4(1H)-imine], the IC50 (commonly the concentration at which inhibition is half-maximal) was at least 50 µM in test [1], at least 50 µM in the test with MCF-7 (breast) cell line and 19.2 ± 0.91 µM in the test on HT-29 (colon) cell line [2].

Take `COc1cccc2c1C(=O)c1c(O)c3c(c(O)c1C2=O)C[C@@](O)(C(=O)CO)C[C@@H]3O[C@H]1C[C@H](N)[C@H](O)[C@H](C)O1` [DOX, doxorubicin, reference compound]: the IC50 is 0.94 ± 0.016 µM in test [1], 0.18 ± 0.011 µM with MCF-7 (breast) cell line, 0.82 ± 0.029 µM in the test on HT-29 (colon) cell line [2] and 0.18 to 0.94 µM in test [3].

For `Cn1c(-c2ccc(Br)cc2)cc2/c(=N\c3ccc(F)cc3)n3c(nc21)CCCCC3` [Compound 8g, (E)-2-(4-Bromophenyl)-N-(4-fluorophenyl)-1-methyl-1,6,7,8,9,10-hexahydro-4H-pyrrolo[2’,3’:4,5]pyrimido[1,2-a]azepin-4-imine], the half-maximal inhibitory concentration (IC50) in test [1] was at least 50 µM; in the test with MCF-7 (breast) cell line, at least 50 µM; in the test on HT-29 (colon) cell line [2], 4.01 ± 0.2 µM; in test [4], 169 ± 0.1 µM.

As for `Cn1c(-c2ccc(Cl)cc2)c(I)c2c(=O)n3c(nc21)CCCC3` [Compound 10c, 2-(4-Chlorophenyl)-3-iodo-1-methyl-6,7,8,9-tetrahydropyrido[1,2-a]pyrrolo[2,3-d]pyrimidin-4(1H)-one], the figures for the IC50 (in test [1]; in the test with MCF-7 (breast) cell line; with HT-29 (colon) cell line [2]) were at least 50 µM, at least 50 µM and 34.2 ± 1.6 µM, respectively. Further, the “IC50 across all three cell lines” value in test [3] was “selective yet weaker activity”.

`Cn1c(-c2ccc(Br)cc2)c(Br)c2c(=O)n3c(nc21)CCCCC3` [Compound 10e, 3-Bromo-2-(4-bromophenyl)-1-methyl-1,6,7,8,9,10-hexahydro-4H-pyrrolo[2’,3’:4,5]pyrimido[1,2-a]azepin-4-one]: the IC50 in test [1] was at least 50 µM; in the test on MCF-7 (breast) cell line it was at least 50 µM; in the test on HT-29 (colon) cell line [2], 16 ± 0.75 µM. Moreover, the “IC50 across all three cell lines” value in test [3] was “selective yet weaker activity”.

With `Cn1c(-c2ccc(Br)cc2)c(I)c2c(=O)n3c(nc21)CCCCC3` [Compound 10f, 2-(4-Bromophenyl)-3-iodo-1-methyl-1,6,7,8,9,10-hexahydro-4H-pyrrolo[2’,3’:4,5]pyrimido[1,2-a]azepin-4-one], the values for the IC50 (in test [1]; in the test on MCF-7 (breast) cell line; in the test with HT-29 (colon) cell line [2]) were at least 50 µM, at least 50 µM and 19 ± 0.92 µM, respectively. Moreover, in test [3], the “IC50 across all three cell lines” value was “selective yet weaker activity”.

As to `Cn1c(-c2ccc(Br)cc2)cc2c(=O)n3c(nc21)CCCCC3` [Compound 6b, 2-(4-Bromophenyl)-1-methyl-1,6,7,8,9,10-hexahydro-4H-pyrrolo[2’,3’:4,5]pyrimido[1,2-a]azepin-4-one], the half-maximal inhibitory concentration (IC50) is at least 50 µM in test [5] and 7.61 ± 0.31 µM in the test with HT-29 (colon) cell line [6].

For `Cn1c(-c2ccc(Cl)cc2)c(Cl)c2c(=O)n3c(nc21)CCCC3` [Compound 10a, 3-Chloro-2-(4-chlorophenyl)-1-methyl-6,7,8,9-tetrahydropyrido[1,2-a]pyrrolo[2,3-d]pyrimidin-4(1H)-one], the “IC50, HeLa” value in test [1] is “moderate activity”. In addition, the 50% inhibitory concentration (IC50) was 22.8 ± 0.98 µM in test [1], 27.5 ± 1.07 µM in the test with MCF-7 (breast) cell line, 24.7 ± 1.13 µM in the test on HT-29 (colon) cell line [2] and 23 to 28 µM in test [3].

Take `Cn1c(-c2ccc(Br)cc2)cc2/c(=N\c3ccc(C(F)(F)F)cc3)n3c(nc21)CCCCC3` [Compound 8j, (E)-2-(4-Bromophenyl)-1-methyl-N-(4-(trifluoromethyl)phenyl)-1,6,7,8,9,10-hexahydro-4H-pyrrolo[2’,3’:4,5]pyrimido[1,2-a]azepin-4-imine]: the IC50 (in test [1]; in the test with MCF-7 (breast) cell line; with HT-29 (colon) cell line [2]) was at least 50 µM in each case.

For the molecule `Cn1c(-c2ccc(Cl)cc2)cc2c(=O)n3c(nc21)CCCC3` [Compound 6a, 2-(4-Chlorophenyl)-1-methyl-6,7,8,9-tetrahydropyrido[1,2-a]pyrrolo[2,3-d]pyrimidin-4(1H)-one], the half-maximal inhibitory concentration (IC50) in test [5] is 6.55 ± 0.31 µM; with HT-29 (colon) cell line [6], 24 ± 0.47 µM.

With `Cn1c(-c2ccc(Br)cc2)c(Cl)c2c(=O)n3c(nc21)CCCCC3` [Compound 10d, 2-(4-Bromophenyl)-3-chloro-1-methyl-1,6,7,8,9,10-hexahydro-4H-pyrrolo[2’,3’:4,5]pyrimido[1,2-a]azepin-4-one], the IC50 (in test [1]; in the test on MCF-7 (breast) cell line; in the test with HT-29 (colon) cell line [2]) was at least 50 µM throughout.

With `Cn1c(-c2ccc(Br)cc2)cc2/c(=N\c3ccc(Cl)cc3)n3c(nc21)CCCCC3` [Compound 8h, (E)-2-(4-Bromophenyl)-N-(4-chlorophenyl)-1-methyl-1,6,7,8,9,10-hexahydro-4H-pyrrolo[2’,3’:4,5]pyrimido[1,2-a]azepin-4-imine], the concentration for half-maximal inhibition (IC50) (in test [1]; in the test on MCF-7 (breast) cell line; in the test on HT-29 (colon) cell line [2]) was at least 50 µM in each case.

For `Cn1c(-c2ccc(Cl)cc2)c(Br)c2c(=O)n3c(nc21)CCCC3` [Compound 10b, 3-Bromo-2-(4-chlorophenyl)-1-methyl-6,7,8,9-tetrahydropyrido[1,2-a]pyrrolo[2,3-d]pyrimidin-4(1H)-one], the results for the IC50 (in test [1]; with MCF-7 (breast) cell line; in the test on HT-29 (colon) cell line [2]) were at least 50 µM, 20.1 ± 0.93 µM and at least 50 µM, respectively. Moreover, in the test with MCF-7 (breast) cell line (72 h), the “IC50, MCF-7” value was “moderate activity”. Also, the “IC50 across all three cell lines” value in test [3] is “selective yet weaker activity”.

As for `Cn1c(-c2ccc(Br)cc2)cc2/c(=N\c3ccccc3)n3c(nc21)CCCCC3` [Compound 8f, (E)-2-(4-Bromophenyl)-1-methyl-N-phenyl-1,6,7,8,9,10-hexahydro-4H-pyrrolo[2’,3’:4,5]pyrimido[1,2-a]azepin-4-imine], the half-maximal inhibitory concentration (IC50) was at least 50 µM in test [1], at least 50 µM with MCF-7 (breast) cell line, 4.55 ± 0.23 µM in the test with HT-29 (colon) cell line [2] and 195 ± 0.07 µM in test [4].

For `Cn1c(-c2ccc(Cl)cc2)cc2/c(=N\c3ccc(Cl)cc3)n3c(nc21)CCCC3` [Compound 8c, (E)-N,2-Bis(4-chlorophenyl)-1-methyl-6,7,8,9-tetrahydropyrido[1,2-a]pyrrolo[2,3-d]pyrimidin-4(1H)-imine], the 50% inhibitory concentration (IC50) (in test [1]; in the test with MCF-7 (breast) cell line; in the test on HT-29 (colon) cell line [2]) was at least 50 µM each time.

Source of the values: paper PMC12299203, “Pyrrolopyrimidines: Design, Synthesis and Antitumor Properties of Novel Tricyclic Pyrrolo [2,3-d]pyrimidine Derivatives” (Molecules, 2025).
